Source: patent US6432949B1, “Amide derivatives useful as inhibitors of the production of cytokines” (AstraZeneca AB, priority 1998, dated 2002)
pIC50: −log10 of the molar value.

Columns and labels:
p38α = target: T1, p38α (Homo sapiens, UniProt Q16539); assay: In vitro enzyme assay, p38α isoform; type: biochemical; conditions: read-out: IC50 against p38α
T1 construct: c-myc (N); 6His (N); made in house; host or cells: E. coli (PET vectors)
Method: The ability of compounds of the invention to inhibit the enzyme p38 kinase was assessed. Activity of test compounds against each of the p38α and […] isoforms of the enzyme was determined.
Human recombinant MKK6 (GenBank Accesion Number G1209672) was isolated from Image clone 45578 (Genomics 1996, 33, 151) and utilised to produce protein in the form of a GST fusion protein in a pGEX vector using analogous procedures to those disclosed by J. Han et al., Journal of Biological Chemistry, 1996, 271, 2886-2891. p38α (GenBank Accession Number G529039) and p38β (GenBank Accession Number G1469305) were isolated by PCR amplification of human lymphoblastoid cDNA (GenBank Accession Number GM1416) and human foetal brain cDNA [synthesised from mRNA (Clontech, catalogue no. 6525-1) using a Gibco superscript cDNA synthesis kit] respectively using oligonucleotides designed for the 5′ and 3′ ends of the human p388α and p38β genes using analogous procedures to those described by J. Han et al., Biochimica et Biolphysica Acta, 1995, 1265, 224-227 and Y. Jiang et al., Journal of Biological Chemistry, 1996, 271, 17920-17926.
Both p38 protein isoforms were expressed in e coli in PET vectors. Human recombinant p38α and p38β isoforms were produced as 5′ c-myc, 6His tagged proteins. Both MKK6 and the p38 proteins were purified using standard protocols: the GST MKK6 was purified using a glutathione sepharose column and the p38 proteins were purified using nickel chelate columns.
The p38 enzymes were activated prior to use by incubation with MKK6 for 3 hours at 30° C. The unactivated coli-expressed MKK6 retained sufficient activity to fully activate both isoforns of p38. The activation incubate comprised p38α (10 μl of 10 mg/ml) or p38β (10 μl of 5 mg/ml) together with MKK6 (10 μl of 1 mg/ml), ‘Kinase buffer’ [100 μl; pH 7.4 buffer comprising Tris (50 mM), EGTA (0.1 mM), sodium orthovanadate (0.1 mM) and β-mercaptoethanol (0.1%)] and MgATP (30 μl of 50 mM Mg(OCOCH3)2 and 0.5 mM ATP). This produced enough activated p38 enzyme for 3 Microtiter plates.
Test compounds were solubilised in DMSO and 10 μl of a 1:10 diluted sample in ‘Kinase Buffer’ was added to a well in a Microtiter plate. For single dose testing, the compounds were tested at 10 μM. ‘Kinase Assay Mix’ [30 μl; comprising Myelin Basic Protein (Gibco BRL cat. no. 1322B-010; 1 ml of a 3.33 mg/ml solution in water), activated p38 enzyme (50 μl) and ‘Kinase Buffer’ (2 ml)] was then added followed by ‘Labelled ATP’ [10 μl; comprising 50 μM ATP, 0.1 μCi ^33P ATP (Amersham International cat. no. BF1000) and 50 mM Mg(OCOCH3)2]. The plates were incubated at room temperature with gentle agitation. Plates containing p38α were incubated for 90 min and plates containing p38β were incubated for 45 min. Incubation was stopped by the addition of 50 μl of 20% trichloroacetic acid (TCA). The precipitated protein was phosphorylated by p38 kinase and test compounds were assessed for their ability to inhibit this phosphorylation. The plates were filtered using a Canberra Packard Unifilter and washed with 2% TCA, dried overnight and counted on a Top Count scintillation counter.
Test compounds were tested initially at a single dose and active compounds were retested to allow IC50 values to be determined.

TNFα production [1] = assay: PBMC test: TNFα production by LPS-stimulated human peripheral blood mononuclear cells; type: cell-based
Method: The ability of compounds of this invention to inhibit TNFα production was assessed by using human peripheral blood mononuclear cells which synthesise and secrete TNFα when stimulated with lipopolysaccharide.
Peripheral blood mononuclear cells (PBMC) were isolated from heparinised (10 units/ml heparin) human blood by density centrifugation (Lymphoprep™; Nycomed). Mononuclear cells were resuspended in culture medium [RPMI 1640 medium (Gibco) supplemented with 50 units/ml penicillin, 50 μg/ml streptomycin, 2 mM glutamine and 1% heat-inactivated human AB serum (Sigma H-1 513)]. Compounds were solubilised in DMSO at a concentration of 50 mM, diluted 1:100 in culture medium and subsequently serial dilutions were made in culture medium containing 1% DMSO. PBMCs (2.4×10^5 cells in 160 μl culture medium) were incubated with 20 μl of varying concentrations of test compound (triplicate cultures) or 20 μl culture medium containing 1% DMSO (control wells) for 30 minutes at 37° C. in a humidified (5%CO2/95% air) incubator (Falcon 3072; 96 well flat-bottom tissue culture plates). 20 μl lipopolysaccharide [LPS E.Coli 0111:B4 (Sigma L4130), final concentration 10 μg/ml] solubilised in culture medium was added to appropriate wells. 20 μl culture medium was added to “medium alone” control wells. Six “LPS alone” and four “medium alone” controls were included on each 96 well plate. Varying concentrations of a known TNFα inhibitor were included in each test, i.e. an inhibitor of the PDE Type IV enzyme (for example see Semmler, J. Wachtel. H. and Endres, S., Int. J. Immunopharmac. (1993), 15(3), 409-413) or an inhibitor of proTNFα convertase (for example, see McGeehan, G. M. et al. Nature (1994) 370, 558-561). Plates were incubated for 7 hours at 37° C. (humidified incubator) after which 100 μl of the supernatant was removed from each well and stored at −70° C. (96 well round-bottom plates; Corning 25850). TNFα levels were determined in each sample using a human TNFα ELISA (see WO92/10190 and Current Protocols in Molecular Biology, vol 2 by Frederick M. Ausbel et al., John Wiley and Sons Inc.).
% inhibition=(LPS alone−medium alone)−(test concentration−medium alone)×100(LPS alone−medium alone)

TNFα production [2] = assay: Human Whole Blood (HWB) test: TNFα production by LPS-stimulated human whole blood; type: cell-based
Method: The ability of the compounds of this invention to inhibit TNFα production was also assessed in a human whole blood assay. Human whole blood secretes TNFα when stimulated with LPS. This property of blood forms the basis of an assay which is used as a secondary test for compounds which profile as active in the PBMC test.
Heparinised (10 units/ml) human blood was obtained from volunteers. 160 μl whole blood were added to 96 well round-bottom plates (Corning 25850). Compounds were solubilised and serially diluted in RPMI 1640 medium (Gibco) supplemented with 50 units/ml penicillin, 50 μg/ml streptomycin and 2 mM glutamine, as detailed above. 20 μl of each test concentration was added to appropriate wells (triplicate cultures). 20 μl of RPMI 1640 medium supplemented with antibiotics and glutamine was added to control wells. Plates were incubated for 30 minutes at 37° C. (humidified incubator), prior to addition of 2011 LPS (final concentration 10 μg/ml). RPMI 1640 medium was added to control wells. Six “LPS alone” and four “medium alone” controls were included on each plate. A known TNFα synthesis/secretion inhibitor was included in each test. Plates were incubated for 6 hours at 37° C. (humidified incubator). […] TNFα levels were measured by ELISA (see WO92/10190 and Current Protocols in Molecular Biology, vol 2 by Frederick M. Ausbel et al., John Wiley and Sons Inc.). […]

T1 sequence (Q16539 whole entry, canonical isoform): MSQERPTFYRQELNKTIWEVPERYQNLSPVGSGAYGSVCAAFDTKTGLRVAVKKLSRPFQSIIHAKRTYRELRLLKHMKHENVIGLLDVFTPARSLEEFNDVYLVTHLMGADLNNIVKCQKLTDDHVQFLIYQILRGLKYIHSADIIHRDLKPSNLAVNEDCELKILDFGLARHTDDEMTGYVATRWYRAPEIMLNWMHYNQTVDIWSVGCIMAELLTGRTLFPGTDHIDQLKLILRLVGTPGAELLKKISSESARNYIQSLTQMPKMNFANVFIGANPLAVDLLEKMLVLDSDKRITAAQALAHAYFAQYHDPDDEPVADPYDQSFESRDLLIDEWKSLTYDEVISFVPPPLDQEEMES

| Compound | pIC50 (p38α) | pIC50 (TNFα production [1]; Homo sapiens, PBMC) | pIC50 (TNFα production [2]) | pIC50 (TNFα production [1]) |
| --- | --- | --- | --- | --- |
| N#Cc1ccc(C(=O)Nc2ccc(Cl)c(NC(=O)c3ccc4ncccc4c3)c2)cc1 [Example 10, N-[2-chloro-5-(4-cyanobenzamido)phenyl]quinoline6-carboxamide] | ~7.30 | ~5.70 |  |  |
| Cc1ccc(NC(=O)c2cccc(N(C)C)c2)cc1NC(=O)c1ccc(Cl)nc1 [Example 1, 6-chloro-N-[5-(3-dimethylaminobenzamido)-2-methylphenyl]pyridine-3-carboxamide] | ~6.00 | ~5.05 |  |  |
| Cc1ccc(NC(=O)c2ccnc(N3CCOCC3)c2)cc1NC(=O)c1ccc(NCCC2CCCN2C)nc1 (stereo not shown) [Example 22(18), 6-[2-(1-methylpyrrolidin-2-yl)ethylamino]-N-[2-methyl-5(2-morpholinopyrid-4-ylcarbonylamino)phenyl]pyridine-3-carboxamide] | ~7.30 | ~6.52 | ~5.70 |  |
| Cc1ccc(NC(=O)c2cccc(N(C)C)c2)cc1NC(=O)c1ccc2ncsc2c1 [Example 8, Compound No. 2, N-[5-(3dimethylaminobenzamido)-2-methylphenyl]benzothiazole-6-carboxamide] | ~7.00 | ~5.30 |  |  |
| Cc1ccc(NC(=O)c2ccnc(N3CCOCC3)c2)cc1NC(=O)c1ccc(NCCCN(C)C)nc1 [Example 22(14), 6-(3-dimethylaminopropylamino)-N-[2-methyl-5-(2-morpholinopyrid-4-ylcarbonylamino)phenyl]pyridine-3-carboxamide] | ~7.30 |  | ~5.52 |  |
| N-[5-(5-isoxazolylcarbonylamino)2-methylphenyl]quinoline-6-carboxamide [Example 14] | ~7.00 |  |  | ~5.52 |
